According to patent US20230146675A1, “PYRIMIDO[5,4-d]PYRIMIDINE DERIVATIVES AS ENT INHIBITORS FOR THE TREATMENT OF CANCERS, AND COMBINATION THEREOF WITH ADENOSINE RECEPTOR ANTAGONISTS” (ITEOS BELGIUM SA, priority 2020, published 2023):
pIC50: −log10 of the molar value.

Molecular target: T1, human ENT1 (Homo sapiens, UniProt Q99808)
T1 sequence (Q99808 1-456): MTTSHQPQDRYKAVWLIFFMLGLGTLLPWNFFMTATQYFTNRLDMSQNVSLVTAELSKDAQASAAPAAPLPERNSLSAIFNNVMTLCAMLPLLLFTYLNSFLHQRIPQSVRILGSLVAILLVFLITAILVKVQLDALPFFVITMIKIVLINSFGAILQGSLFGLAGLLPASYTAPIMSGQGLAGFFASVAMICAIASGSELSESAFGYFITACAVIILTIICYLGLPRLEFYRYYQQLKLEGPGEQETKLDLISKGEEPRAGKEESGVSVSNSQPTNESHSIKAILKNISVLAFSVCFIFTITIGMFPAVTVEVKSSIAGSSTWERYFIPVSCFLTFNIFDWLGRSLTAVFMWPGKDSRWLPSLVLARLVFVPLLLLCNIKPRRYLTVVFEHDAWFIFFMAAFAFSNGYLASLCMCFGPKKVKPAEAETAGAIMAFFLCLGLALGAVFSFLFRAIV
Assay: ENT1 binding assay (competition with Sahenta-DY647 on JAR cells)
Design: JAR cells expressing ENT1 were bought from ATCC; host or cells: JAR cells
Settings: binned IC50
Procedure, shortened: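 JAR cells were incubated with test compounds and the fluorescent ligand Sahenta-DY647 in competition. Plates were washed twice by centrifugation (4 min, 400 rcf, 4 °C). Binding potency was derived from the final fluorescence.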

pIC50 | SMILES
> 7.00 | COCCN(CCOC)c1nc(N2CCc3c(cnn3C)C2)c2nc(N(CCOC)CCOC)nc(N3CCN(C)C(=O)C3)c2n1 [Compound 255, 4-(2,6-bis(bis(2-methoxyethyl)amino)-8-(1-methyl-1,4,6,7-tetrahydro-5H-pyrazolo[4,3-c]pyridin-5-yl)pyrimido[5,4-d]pyrimidin-4-yl)-1-methylpiperazin-2-one]
6.30 to 7.00 | COCCN(CCOC)c1nc(N2CCN(c3ncn(C)n3)CC2)c2nc(N(CCOC)CCOC)nc(N(C)Cc3cccc(C#N)c3)c2n1 [Compound 244, 3-(((2,6-bis(bis(2-methoxyethyl)amino)-8-(4-(1-methyl-1H-1,2,4-triazol-3-yl)piperazin-1-yl)pyrimido[5,4-d]pyrimidin-4-yl)(methyl)amino)methyl)benzonitrile]
> 7.00 | COCCN(CCOC)c1nc(N2CCN(c3ncn(C)n3)CC2)c2nc(N(CCOC)CCOC)nc(N(C)Cc3cccc(OC)c3)c2n1 [Compound 243, N4-(3-methoxybenzyl)-N2,N2,N6,N6-tetrakis(2-methoxyethyl)-N4-methyl-8-(4-(1-methyl-1H-1,2,4-triazol-3-yl)piperazin-1-yl)pyrimido[5,4-d]pyrimidine-2,4,6-triamine]
6.30 to 7.00 | COCCN(CCOC)c1nc(N2CCN(C)C(=O)C2)c2nc(N(CCOC)CCOC)nc(N3CCN(C)C(=O)C3)c2n1 [Compound 187, 4,4′-(2,6-bis(bis(2-methoxyethyl)amino)pyrimido[5,4-d]pyrimidine-4,8-diyl)bis(1-methylpiperazin-2-one)]
6.00 to 6.30 | CCOC(=O)C1CCN(c2nc(N(CCOC)CCOC)nc3c(N4CCC(C(=O)OCC)CC4)nc(N(CCO)CCO)nc23)CC1 [Compound 14, diethyl 1,1′-(2-(bis(2-hydroxyethyl)amino)-6-(bis(2-methoxyethyl)amino)pyrimido[5,4-d]pyrimidine-4,8-diyl)bis(piperidine-4-carboxylate)]
6.00 to 6.30 | CCN(CCN1CCCC1)c1nc(N2CCC(OC)CC2)c2nc(N(CCOC)CCOC)nc(N3CCC(OC)CC3)c2n1 [Compound 132, N2-ethyl-N6,N6-bis(2-methoxyethyl)-4,8-bis(4-methoxypiperidin-1-yl)-N2-(2-(pyrrolidin-1-yl)ethyl)pyrimido[5,4-d]pyrimidine-2,6-diamine]
6.30 to 7.00 | COCCN(CCOC)c1nc(N2CCC(OC)CC2)c2nc(N(CCOC)CCOC)nc(NCc3ccc(C#N)cc3)c2n1 [Compound 140, 4-(((2,6-bis(bis(2-methoxyethyl)amino)-8-(4-methoxypiperidin-1-yl)pyrimido[5,4-d]pyrimidin-4-yl)amino)methyl)benzonitrile]
6.30 to 7.00 | COCCN(CCOC)c1nc(N2CCN(C)C(=O)C2)c2nc(N3CCn4nncc4C3)nc(N3CCC(OC)CC3)c2n1 [Compound 288, 4-(2-(bis(2-methoxyethyl)amino)-6-(6,7-dihydro-[1,2,3]triazolo[1,5-a]pyrazin-5(4H)-yl)-8-(4-methoxypiperidin-1-yl)pyrimido[5,4-d]pyrimidin-4-yl)-1-methylpiperazin-2-one]
> 7.00 | COCCN(CCOC)c1nc(N2CCC(OC)CC2)c2nc(N(CCOC)CCOC)nc(N(C)CC(C)C)c2n1 [Compound 168, N4-isobutyl-N2,N2,N6,N6-tetrakis(2-methoxyethyl)-8-(4-methoxypiperidin-1-yl)-N4-methylpyrimido[5,4-d]pyrimidine-2,4,6-triamine]
6.30 to 7.00 | COCCN(CCOC)c1nc(N2CC(CO)C2)c2nc(N(CCOC)CCOC)nc(N3CCC(OC)CC3)c2n1 [Compound 92, (1-(2,6-bis(bis(2-methoxyethyl)amino)-8-(4-methoxypiperidin-1-yl)pyrimido[5,4-d]pyrimidin-4-yl)azetidin-3-yl)methanol]
> 7.00 | COCCN(CCOC)c1nc(N2CCN(C)C(=O)C2)c2nc(N(CCOC)CCOC)nc(NCc3cccc(F)c3)c2n1 [Compound 207, 4-(2,6-bis(bis(2-methoxyethyl)amino)-8-((3-fluorobenzyl)amino)pyrimido[5,4-d]pyrimidin-4-yl)-1-methylpiperazin-2-one]
> 7.00 | COCCN(CCOC)c1nc(N2CCN(C)C(=O)C2)c2nc(N(CCOC)CCOC)nc(N(C)Cc3ccccc3)c2n1 [Compound 230, 4-(8-(benzyl(methyl)amino)-2,6-bis(bis(2-methoxyethyl)amino)pyrimido[5,4-d]pyrimidin-4-yl)-1-methylpiperazin-2-one]
6.30 to 7.00 | COCCN(CCOC)c1nc(N2CCC(OC)CC2)c2nc(N(CCOC)CCOC)nc(OCc3cccc(-c4noc(C)n4)c3)c2n1 [Compound 159, N2,N2,N6,N6-tetrakis(2-methoxyethyl)-4-(4-methoxypiperidin-1-yl)-8-((3-(5-methyl-1,2,4-oxadiazol-3-yl)benzyl)oxy)pyrimido[5,4-d]pyrimidine-2,6-diamine]
6.30 to 7.00 | COCCN(CCOC)c1nc(N2CCC(OC)CC2)c2nc(N(CCO)CCN(C)C(C)=O)nc(N3CCN(C)C(=O)C3)c2n1 [Compound 277, N-(2-((6-(bis(2-methoxyethyl)amino)-8-(4-methoxypiperidin-1-yl)-4-(4-methyl-3-oxopiperazin-1-yl)pyrimido[5,4-d]pyrimidin-2-yl)(2-hydroxyethyl)amino)ethyl)-N-methylacetamide]
6.30 to 7.00 | COCCN(CCOC)c1nc(N2CCC(F)(F)CC2)c2nc(N(CCOC)CCOC)nc(N3CCC(F)(F)CC3)c2n1 [Compound 195, 4,8-bis(4,4-difluoropiperidin-1-yl)-N2,N2,N6,N6-tetrakis(2-methoxyethyl)pyrimido[5,4-d]pyrimidine-2,6-diamine]
> 7.00 | COCCN(CCOC)c1nc(N2CCC(OC)CC2)c2nc(N(CCOC)Cc3ccc(OC)c(OC)c3OC)nc(N3CCC(OC)CC3)c2n1 [Compound 183, N2,N2,N6-tris(2-methoxyethyl)-4,8-bis(4-methoxypiperidin-1-yl)-N6-(2,3,4-trimethoxybenzyl)pyrimido[5,4-d]pyrimidine-2,6-diamine]
6.30 to 7.00 | COCCN(CCOC)c1nc(N2CCC(OC)CC2)c2nc(N(CCOC)CCOC)nc(OCc3cncc(C#N)c3)c2n1 [Compound 158, 5-(((2,6-bis(bis(2-methoxyethyl)amino)-8-(4-methoxypiperidin-1-yl)pyrimido[5,4-d]pyrimidin-4-yl)oxy)methyl)nicotinonitrile]
6.00 to 6.30 | COCCN(Cc1ccc(C(=O)O)cc1)c1nc(N2CCN(C)C(=O)C2)c2nc(N(CCOC)CCOC)nc(N3CCC(OC)CC3)c2n1 [Compound 333, 4-(((6-(bis(2-methoxyethyl)amino)-8-(4-methoxypiperidin-1-yl)-4-(4-methyl-3-oxopiperazin-1-yl)pyrimido[5,4-d]pyrimidin-2-yl)(2-methoxyethyl)amino)methyl)benzoic acid]
> 7.00 | COCCN(CCOC)c1nc(N2CCC(OC)CC2)c2nc(N(CCOC)CCOC)nc(NCc3ccc(OC)c(OC)c3)c2n1 [Compound 170, N4-(3,4-dimethoxybenzyl)-N2,N2,N6,N6-tetrakis(2-methoxyethyl)-8-(4-methoxypiperidin-1-yl)pyrimido[5,4-d]pyrimidine-2,4,6-triamine]
> 7.00 | COCCN(CCOC)c1nc(N2CCC(OC)CC2)c2nc(N(CCOC)CCOC)nc(N3CCCOCC3)c2n1 [Compound 79, N2,N2,N6,N6-tetrakis(2-methoxyethyl)-4-(4-methoxypiperidin-1-yl)-8-(1,4-oxazepan-4-yl)pyrimido[5,4-d]pyrimidine-2,6-diamine]
> 7.00 | CCCCNc1nc(N(CCOC)CCOC)nc2c(N3CCC(OC)CC3)nc(N(CCOC)CCOC)nc12 [Compound 54, N4-butyl-N2,N2,N6,N6-tetrakis(2-methoxyethyl)-8-(4-methoxypiperidin-1-yl)pyrimido[5,4-d]pyrimidine-2,4,6-triamine]
> 7.00 | COCCN(CCOC)c1nc(N2CCc3cn[nH]c3C2)c2nc(N(CCOC)CCOC)nc(N3CCN(C)C(=O)C3)c2n1 [Compound 259, 4-(2,6-bis(bis(2-methoxyethyl)amino)-8-(1,4,5,7-tetrahydro-6H-pyrazolo[3,4-c]pyridin-6-yl)pyrimido[5,4-d]pyrimidin-4-yl)-1-methylpiperazin-2-one]
6.30 to 7.00 | COCCN(CCOC)c1nc(N2CCC(OC)CC2)c2nc(N(CCOC)CCOC)nc(NCc3ccc(C)o3)c2n1 [Compound 161, N2,N2,N6,N6-tetrakis(2-methoxyethyl)-8-(4-methoxypiperidin-1-yl)-N4-((5-methylfuran-2-yl)methyl)pyrimido[5,4-d]pyrimidine-2,4,6-triamine]
> 7.00 | COCCN(CCOC)c1nc(N2CCC(OC)CC2)c2nc(N(CC(C)O)CC(C)O)nc(N3CCN(C)C(=O)C3)c2n1 (centres unmarked) [Compound 327, 4-(2-(bis(2-hydroxypropyl)amino)-6-(bis(2-methoxyethyl)amino)-8-(4-methoxypiperidin-1-yl)pyrimido[5,4-d]pyrimidin-4-yl)-1-methylpiperazin-2-one]
> 7.00 | COCCN(CCOC)c1nc(N2CCN(c3ncn(C)n3)CC2)c2nc(N(CCOC)CCOC)nc(NCc3ccc(F)c(F)c3)c2n1 [Compound 227, N4-(3,4-difluorobenzyl)-N2,N2,N6,N6-tetrakis(2-methoxyethyl)-8-(4-(1-methyl-1H-1,2,4-triazol-3-yl)piperazin-1-yl)pyrimido[5,4-d]pyrimidine-2,4,6-triamine]
6.30 to 7.00 | COCCN(CCOC)c1nc(N2CC(F)C2)c2nc(N(CCOC)CCOC)nc(N3CCC(OC)CC3)c2n1 [Compound 99, 4-(3-fluoroazetidin-1-yl)-N2,N2,N6,N6-tetrakis(2-methoxyethyl)-8-(4-methoxypiperidin-1-yl)pyrimido[5,4-d]pyrimidine-2,6-diamine]
